Experimental data as given in the NIST ThermoML archive (doi:10.1021/je901085t).

Key:
[1] = Capillary rise
[2] = wn = mass fraction of the nth substance listed; settings: Capillary rise

CCC [propane]
[1]
Settings | surface tension liquid-gas [mN/m]
283.16 K | 8.811
288.17 K | 8.134
293.13 K | 7.568
298.1 K | 6.915
303.12 K | 6.349

CC(F)F [1,1-difluoroethane] + CCC
[2]
Settings | surface tension liquid-gas [mN/m]
248.15 K, w2 = 0.3497 | 14.65
248.24 K, w2 = 0.2008 | 15.35
248.37 K, w2 = 0.4922 | 13.88
253.14 K, w2 = 0.3497 | 13.96
253.15 K, w2 = 0.4922 | 13.25
253.19 K, w2 = 0.2008 | 14.7
258.1 K, w2 = 0.3497 | 13.22
258.1 K, w2 = 0.4922 | 12.55
258.15 K, w2 = 0.2008 | 14.02
263.1 K, w2 = 0.3497 | 12.43
263.18 K, w2 = 0.4922 | 11.93
263.19 K, w2 = 0.2008 | 13.32
268.13 K, w2 = 0.3497 | 11.85
268.16 K, w2 = 0.4922 | 11.19
268.19 K, w2 = 0.2008 | 12.72
273.08 K, w2 = 0.4922 | 10.49
273.15 K, w2 = 0.3497 | 11.2
273.19 K, w2 = 0.2008 | 12.04
278.16 K, w2 = 0.3497 | 10.31
278.18 K, w2 = 0.2008 | 11.35
278.18 K, w2 = 0.4922 | 9.895
283.16 K, w2 = 0.2008 | 10.48
283.16 K, w2 = 0.3497 | 9.754
283.18 K, w2 = 0.4922 | 9.111
288.15 K, w2 = 0.3497 | 9.186
288.17 K, w2 = 0.4922 | 8.51
288.18 K, w2 = 0.2008 | 9.752
293.13 K, w2 = 0.3497 | 8.519
293.16 K, w2 = 0.2008 | 9.136
293.16 K, w2 = 0.4922 | 7.919
298.1 K, w2 = 0.2008 | 8.465
298.1 K, w2 = 0.3497 | 7.79
298.15 K, w2 = 0.4922 | 7.255
303.15 K, w2 = 0.3497 | 6.986
303.18 K, w2 = 0.2008 | 7.708
303.2 K, w2 = 0.4922 | 6.616
308.11 K, w2 = 0.2008 | 7.125
308.11 K, w2 = 0.3497 | 6.317
308.46 K, w2 = 0.4922 | 5.985
313.16 K, w2 = 0.4922 | 5.421
313.18 K, w2 = 0.3497 | 5.675
313.19 K, w2 = 0.2008 | 6.518
318.13 K, w2 = 0.3497 | 5.133
318.14 K, w2 = 0.2008 | 5.897
318.14 K, w2 = 0.4922 | 4.913
323.16 K, w2 = 0.3497 | 4.602
323.17 K, w2 = 0.4922 | 4.269
323.18 K, w2 = 0.2008 | 5.202
328.12 K, w2 = 0.2008 | 4.614
328.12 K, w2 = 0.3497 | 3.958
328.15 K, w2 = 0.4922 | 3.789
